Blank lines part the entries; values can stand above or below the molecule they belong to.
Tests used:
TGR(hAGT)L1623 rats = conditions: chronic administration; cited from earlier work
Ang II = target: T1, Ang II (Homo sapiens, UniProt P01019); test: Specificity of immunoneutralization: pressor response to Ang II; type: in vivo
T1 construct: host or cells: injected into TGR(hAGT)L1623 rats
Experimental: In a separate group of 12 TGR(hAGT)L1623 rats (6 females) the blood pressure and heart rate responses to intravenous bolus injection of a monoclonal antibody directed against the human amino acid sequence of Ang-(1-12) [Ang-(1-12)-mAb] was administered at a dose of 30 mg/kg. […] The Ang-(1-12)-mAb was diluted in physiological saline to a concentration of 30 mg in a volume not to exceed 1 mL of buffered saline. The specificity of the immunoneutralization of Ang-(1-12) was evaluated in additional experiments in which the rat sequence of Ang-(1-12) (300 pmol/kg, n=2); Ang II (50 pmol/kg; n=3 TGR(hAGT)L1623 rats) or an […] mouse IgG (30 mg/kg, n=4 TGR(hAGT)L1623 rats; Innovative Research, Inc. Novi, MI) were administered intravenously.

[1] = system: Sprague Dawley (SD) rats and TGR(hAGT)L1623 rats; test: Systemic vasoconstrictor activity of intravenous h-Ang-(1-12); type: in vivo, rat; conditions: for time to peak of increase in mean arterial pressure: 75-300 pmol/kg i.v.
Experimental: Efficacy of Ang-(1-12) Immunoneutralization in vivo: We examined the systemic vasoconstrictor activity of Ang-(1-12) (dose range 75-300 pmol) in 20 (10 females) Sprague Dawley (SD) rats (age 12-weeks) and 20 (10 female) other rats expressing the human sequence of the AGT gene [TGR(hAGT)L1623] (age 10-12 weeks) following induction of general anesthesia with thio-butabarbital sodium [Inactin® (135 mg/kg, i.p.)] and tracheal intubation for mechanical ventilation. Plastic catheters were introduced into a left carotid artery [PE-50 catheter attached to a heparinized saline wash syringe (15 USP U/mL) and a femoral vein (PE-10) for drug delivery. Phasic and mean arterial pressures, recorded with a True Wave pressure transducer (Edwards Lifesciences, Co, Irvine, CA) connected to the arterial cannula, were processed by a data-acquisition and analysis system with Acknowledge 5 software (MP160, BIOPAC System Inc., Goleta, CA). Heart rate was derived by the software from the electrical analysis of the rise portion of the pressure waveform.

[2] = system: isolated carotid artery rings; test: Ang-(1-12) constrictor activity in isolated carotid artery rings; set-up: species or system rat; conditions: concentration of 5×10^−1; SD and TGR(hAGT)L1623 rats; FIG. 7
From the text: Efficacy of Ang-(1-12) Immunoneutralization in Isolated Carotid Arteries. The ability of the Ang-(1-12)-mAb to block Ang-(1-12) vasoconstrictor activity in 6 SD and 3 TGR(hAGT)L1623 rats was further assessed in isolated carotid artery rings that were mounted in organ chambers as described elsewhere.^3 Under a dissecting microscope, both carotid arteries were dissected free of adventitial tissue, cut into 1.5-2 mm segments and mounted on a myograph (Multi Myograph, Model 610M Danish Myo Technologies, Aarhus, Denmark) using two stainless steel hooks. In all the arterial segments, the endothelium was disrupted by passing a human hair through the lumen of the vessel. The myograph chamber was filled with Krebs-Henseleit buffer (KHB) solution, maintained at 37° C. and aerated with 95% O2/5% CO2. The vessels were washed and incubated for 30 min before determining the optimal diameter. Each arterial segment was stretched to its individual optimal lumen diameter following the normalization procedure previously described. In all studies, after obtaining the optimal diameter, a 30-min equilibration period preceded the addition of the test substances. Contractile responses to a single dose of 62.5 mM KCl was obtained for all segments by calculating the average of three consecutive doses tested at 15 min intervals. This response was used to normalize tension between individual arterial segments. […]

Molecule: CCCCC(=O)N(Cc1ccc(-c2ccccc2-c2nnn[nH]2)cc1)[C@H](C(=O)O)C(C)C [valsartan]
effect on hypertension (TGR(hAGT)L1623 rats): Reversal of the hypertension

peak mean arterial pressure after bolus intravenous Ang II (Ang II; 30-60 min after delivery of the Ang-(1-12) mAb, baseline 100±12 mm Hg): 117±13 mm Hg | peak mean arterial pressure after bolus intravenous Ang II (Ang II; before the Ang-(1-12) mAb, baseline 95±6 mm Hg): 114±8 mm Hg
Molecule: angiotensin II (DRVYIHPF; listed as Homo sapiens) [Ang II]

Molecule: human angiotensin-(1-12) (DRVYIHPFHLVI; listed as Homo sapiens) [h-Ang-(1-12)]
time to peak of increase in mean arterial pressure ([1]; SD rats): 32.45 ± 1.08 s | time to peak of increase in mean arterial pressure ([1]; TGR(hAGT)L1623 rats): 36.20 ± 1.52 s | change in mean arterial pressure ([1]; i.v. doses between 75 pmol/kg and 300 pmol/kg): rapid and dose-dependent increases | constrictor responses in carotid artery rings normalized for KCL [2]: significant constrictor responses

Source: patent US12365739B2, “Monoclonal antibodies to angiotensin-(1-12), compositions including the same, and methods of use thereof” (Wake Forest University Health Sciences, priority 2021, dated 2025)
